Reference: ChEMBL document CHEMBL4513161, “CO-ADD screening of MMV (CH) - Pandemic Response Box” (2021)

How the values were obtained:
Staphylococcus aureus = experiment: microbe, parasite or virus in culture; settings: ATCC 43300, 18 h, ASSAY_TEST Inhibition of Bacterial Growth, detection method Absorption (OD600), MEDIA CAMHB, plate type 384well, NBS, CORNING #3640
Description: Antibacterial activity against Staphylococcus aureus MRSA ATCC 43300 (CO-ADD:GP_020); MIC in CAMBH media, using NBS plates, by OD(600)

Acinetobacter baumannii = experiment: microbe, parasite or virus in culture; settings: ATCC 19606, 18 h, ASSAY_TEST Inhibition of Bacterial Growth, detection method Absorption (OD600), MEDIA CAMHB, plate type 384well, NBS, CORNING #3640
Description: Antibacterial activity against Acinetobacter baumannii ATCC 19606 (CO-ADD:GN_034); MIC in CAMBH media using NBS plates, by OD600

HEK293 = experiment: cells; assay type: functional, Homo sapiens, ATCC CRL1573; settings: Homo sapiens, ATCC CRL1573, HEK293; ASSAY_TEST Inhibition of Cell Viability; detection method Resazurin; Fluorescence (ex560/em590); MEDIA DMEM with 10% FBS; plate type 384well; TC; CORNING #3712; time 18 hr; read-out: CC50
Klebsiella pneumoniae = experiment: microbe, parasite or virus in culture; settings: ATCC 700603, 18 h, ASSAY_TEST Inhibition of Bacterial Growth, detection method Absorption (OD600), MEDIA CAMHB, plate type 384well, NBS, CORNING #3640
Description: Antibacterial activity against Klebsiella pneumoniae MDR ATCC 70063 (CO-ADD:GN_003); MIC in CAMBH media using NBS plates, by OD(600)

Escherichia coli = experiment: microbe, parasite or virus in culture; settings: ATCC 25922, 18 h, ASSAY_TEST Inhibition of Bacterial Growth, detection method Absorption (OD600), MEDIA CAMHB, plate type 384well, NBS, CORNING #3640
Description: Antibacterial activity against Escherichia coli ATCC 25922 (CO-ADD:GN_001); MIC in CAMBH media using NBS plates, by OD(600)

Pseudomonas aeruginosa [1] = experiment: Antibacterial activity against Pseudomonas aeruginosa PAO397 [PAO1 d(mexAB-oprM) d(mexCD-oprJ) d(mexEF-oprN) d(mexJKL) d(mexXY) d(opmH)] (CO-ADD:GN_211); MIC in CAMBH media using NBS plates, by OD(600); assay type: functional; settings: ASSAY_TEST Inhibition of Bacterial Growth, detection method Absorption (OD600), MEDIA CAMHB, plate type 384well, CORNING #3640, time 18 hr
Pseudomonas aeruginosa [2] = experiment: microbe, parasite or virus in culture; settings: ATCC 27853, 18 h, ASSAY_TEST Inhibition of Bacterial Growth, detection method Absorption (OD600), MEDIA CAMHB, plate type 384well, NBS, CORNING #3640
Description: Antibacterial activity against Pseudomonas aeruginosa ATCC 27853 (CO-ADD:GN_042); MIC in CAMBH media using NBS plates, by OD(600)

Candida albicans = experiment: microbe, parasite or virus in culture; settings: ATCC 90028, ASSAY_TEST Inhibition of Fungal Growth, detection method Absorption (OD530), plate type 384well, NBS, CORNING #3640
Description: Antifungal activity against Candida albicans ATCC 90028 (CO-ADD:FG_001); MIC in YNB media using NBS plates, by OD630

Description for Cryptococcus neoformans: Antifungal activity against Cryptococcus neoformans H99 ATCC 208821 (CO-ADD:FG_002); MIC in YNB media using NBS plates, by Resazurin OD(600-570)

CC(C)Oc1ccc(-c2nc(-c3cccc4c3CC[C@@H]4NCCO)no2)cc1C#N [OZANIMOD]
> 20 µM: MIC (Staphylococcus aureus) | MIC (Acinetobacter baumannii) | CC50 (HEK293) | MIC (Klebsiella pneumoniae) | MIC (Escherichia coli) | MIC (Pseudomonas aeruginosa [1]) | MIC (Pseudomonas aeruginosa [2]) | MIC (Cryptococcus neoformans) | MIC (Candida albicans)

Cc1ccc(NC(=O)c2ccc(CN3CCN(C)CC3)cc2)cc1Nc1nccc(-c2cccnc2)n1 [IMATINIB]
> 20 µM: MIC (Staphylococcus aureus) | MIC (Acinetobacter baumannii) | CC50 (HEK293) | MIC (Klebsiella pneumoniae) | MIC (Escherichia coli) | MIC (Pseudomonas aeruginosa [1]) | MIC (Pseudomonas aeruginosa [2]) | MIC (Cryptococcus neoformans) | MIC (Candida albicans)

NC(=O)c1c(N)sc2c1CCCCC2
> 20 µM: MIC (Staphylococcus aureus) | MIC (Acinetobacter baumannii) | CC50 (HEK293) | MIC (Klebsiella pneumoniae) | MIC (Escherichia coli) | MIC (Pseudomonas aeruginosa [1]) | MIC (Pseudomonas aeruginosa [2]) | MIC (Cryptococcus neoformans) | MIC (Candida albicans)

C[Si]1(C)CCN(Cc2cc(-c3ccc(Cl)cc3)n(-c3ccc(Cl)cc3)n2)CC1
> 20 µM: MIC (Staphylococcus aureus) | MIC (Acinetobacter baumannii) | CC50 (HEK293) | MIC (Klebsiella pneumoniae) | MIC (Escherichia coli) | MIC (Pseudomonas aeruginosa [1]) | MIC (Pseudomonas aeruginosa [2]) | MIC (Cryptococcus neoformans) | MIC (Candida albicans)

OCCCCn1cnc2c(O)nc(NCc3ccc(Cl)c(Cl)c3)nc21
> 20 µM: MIC (Staphylococcus aureus) | MIC (Acinetobacter baumannii) | CC50 (HEK293) | MIC (Klebsiella pneumoniae) | MIC (Escherichia coli) | MIC (Pseudomonas aeruginosa [1]) | MIC (Pseudomonas aeruginosa [2]) | MIC (Cryptococcus neoformans) | MIC (Candida albicans)

COC(=O)Nc1nc2cc([S+]([O-])c3ccccc3)ccc2[nH]1 (stereo unspecified) [OXFENDAZOLE]
> 20 µM: MIC (Staphylococcus aureus) | MIC (Acinetobacter baumannii) | CC50 (HEK293) | MIC (Klebsiella pneumoniae) | MIC (Escherichia coli) | MIC (Pseudomonas aeruginosa [1]) | MIC (Pseudomonas aeruginosa [2]) | MIC (Cryptococcus neoformans) | MIC (Candida albicans)

NC1C2CC3CC(C2)CC1C3 (stereo unspecified)
> 20 µM: MIC (Staphylococcus aureus) | MIC (Acinetobacter baumannii) | CC50 (HEK293) | MIC (Klebsiella pneumoniae) | MIC (Escherichia coli) | MIC (Pseudomonas aeruginosa [1]) | MIC (Pseudomonas aeruginosa [2]) | MIC (Cryptococcus neoformans) | MIC (Candida albicans)

OCCC#Cc1nc(-c2ccc(F)cc2)c(-c2ccncc2)n1CCCc1ccccc1 [RWJ-67657]
> 20 µM: MIC (Staphylococcus aureus) | MIC (Acinetobacter baumannii) | CC50 (HEK293) | MIC (Klebsiella pneumoniae) | MIC (Escherichia coli) | MIC (Pseudomonas aeruginosa [1]) | MIC (Pseudomonas aeruginosa [2]) | MIC (Cryptococcus neoformans) | MIC (Candida albicans)

C[C@H]1CC[C@@]2(O)C(C)(C)[C@@H]3CC[C@@]2(C)[C@H]1C3
> 20 µM: MIC (Staphylococcus aureus) | MIC (Acinetobacter baumannii) | CC50 (HEK293) | MIC (Klebsiella pneumoniae) | MIC (Escherichia coli) | MIC (Pseudomonas aeruginosa [1]) | MIC (Pseudomonas aeruginosa [2]) | MIC (Cryptococcus neoformans) | MIC (Candida albicans)

CC(C)Nc1ncnc2c1cnn2-c1ccc(Cl)cc1
> 20 µM: MIC (Staphylococcus aureus) | MIC (Acinetobacter baumannii) | CC50 (HEK293) | MIC (Klebsiella pneumoniae) | MIC (Escherichia coli) | MIC (Pseudomonas aeruginosa [1]) | MIC (Pseudomonas aeruginosa [2]) | MIC (Cryptococcus neoformans) | MIC (Candida albicans)

CC1CN(c2ncnc3c2c(-c2ccccc2)cn3-c2ccc(F)cc2)CC(C)O1 (stereo unspecified)
> 20 µM: MIC (Staphylococcus aureus) | MIC (Acinetobacter baumannii) | CC50 (HEK293) | MIC (Klebsiella pneumoniae) | MIC (Escherichia coli) | MIC (Pseudomonas aeruginosa [1]) | MIC (Pseudomonas aeruginosa [2]) | MIC (Cryptococcus neoformans) | MIC (Candida albicans)

Cc1nc(N(C)C(=O)Cc2ccc(-c3ccccn3)cc2)sc1S(N)(=O)=O
> 20 µM: MIC (Staphylococcus aureus) | MIC (Acinetobacter baumannii) | CC50 (HEK293) | MIC (Klebsiella pneumoniae) | MIC (Escherichia coli) | MIC (Pseudomonas aeruginosa [1]) | MIC (Pseudomonas aeruginosa [2]) | MIC (Cryptococcus neoformans) | MIC (Candida albicans)

O=C(O)c1cc(-c2ccc(Br)cc2)nc2ccc(Cl)cc12
> 20 µM: MIC (Staphylococcus aureus) | MIC (Acinetobacter baumannii) | CC50 (HEK293) | MIC (Klebsiella pneumoniae) | MIC (Escherichia coli) | MIC (Pseudomonas aeruginosa [1]) | MIC (Pseudomonas aeruginosa [2]) | MIC (Cryptococcus neoformans) | MIC (Candida albicans)

Nc1nnc(-c2ccc(Cl)cc2)s1
> 20 µM: MIC (Staphylococcus aureus) | MIC (Acinetobacter baumannii) | CC50 (HEK293) | MIC (Klebsiella pneumoniae) | MIC (Escherichia coli) | MIC (Pseudomonas aeruginosa [1]) | MIC (Pseudomonas aeruginosa [2]) | MIC (Cryptococcus neoformans) | MIC (Candida albicans)
